From ChEMBL document CHEMBL5726656, “N-(phenylsulfonyl)benzamides and related compounds as BCL-2 inhibitors” (2019) come the findings set out here.

This assay deals with Apoptosis regulator Bcl-2 (Homo sapiens, UniProt P10415). In words: FP values were measured as described above.

Each structure is given as a SMILES string.

Sequence of Apoptosis regulator Bcl-2 (P10415 whole entry): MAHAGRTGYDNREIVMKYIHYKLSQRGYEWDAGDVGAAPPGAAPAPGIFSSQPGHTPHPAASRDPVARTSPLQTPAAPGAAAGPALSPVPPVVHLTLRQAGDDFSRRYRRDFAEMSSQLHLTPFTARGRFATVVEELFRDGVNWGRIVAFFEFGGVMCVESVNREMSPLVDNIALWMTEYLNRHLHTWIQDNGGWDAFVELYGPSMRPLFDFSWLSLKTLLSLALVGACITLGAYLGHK

Molecule `O=C(NS(=O)(=O)c1cc([N+](=O)[O-])c2cnn(CC3CCOCC3)c2c1)c1ccc(N2CCN(CC3=C(c4ccc(Cl)cc4)CC4(CCC4)CC3)CC2)cc1Oc1cnc2[nH]ccc2c1` had an IC50 of 1.6 nM.

As a reminder, the IC50 is the concentration that inhibits the measured activity by half. A lower IC50 goes with inhibition by little substance.
